# Patent US20020132364A1, “Quant-screentm chemiluminescent assays” (priority 2001, published 2002)
# Numbered stars: 1 amine (or outer) side, 2 acyl side, 3 side chain; on linkers, the order of the positions; unused ones are H or OH. Bridge positions count the residues as written; N and C are the ends. Square brackets hold non-standard residues; d marks the D form. Peptide text beside a SMILES is read from it. I, II: the chains in the order shown. Actinocin(9to1) = Cc1c2oc3c(C)ccc(C(=O)[*:1])c3nc-2c(C(=O)[*:2])c(N)c1=O; NMeV = CN[C@H](C(=O)O)C(C)C; Sar = CNCC(=O)O
# Tested on: Saccharomyces cerevisiae INVSc1 yeast cells
# Assay: Yeast growth inhibition experiment (Quant-Screen Yeast Assay and OD600)
# Format: cell-based
# Conditions: INVSc1 in YPD medium, 6 hours at 30° C., different concentrations
# Experimental: Serial dilutions of a yeast cell suspension prepared in culture media was placed in each well of a 96-well plate (100 μl/well). Next, 100 μl of reaction buffer containing the CDP-Star® substrate was added to each well. The light emission was then immediately measured in a luminometer (TR717®) (1 sec/well) or NorthStar® (60 sec/plate).
# An equivalent aliquot of yeast cell suspension (INVSc1) were inoculated into tubes with 2 ml of minimum medium containing various concentrations of leucine and were grown overnight at 30° C. with shaking. The overnight cultures were then measured by a spectrophotometer at 600 nm to estimate cell density. Next, each of the overnight cultures was transferred (100 μl/well) into a 96-well microplate in triplicate. An equal volume of reaction buffer was added. The plate was placed in TR717™ (a luminometer) to measure total light emission.
# 100 μof log phase growing yeast cells, INVSc1, were inoculated into tubes with 1 ml of YPD medium containing different concentrations of actinomycin D, a […]. The cultures were grown at 30° C. with shaking for 6 hours. The cultures were measured for OD600 in a spectrophotometer. Next, the cells were transferred (100 μl/well) in triplicate in a 96-well microplate. The assay was performed as in the Growth Stimulation Experiment set forth above.
smiles,measurement,value
"Cc1c2oc3c(C)ccc(C(=O)N[C@@H]4C(=O)N[C@H](C(C)C)C(=O)N5CCC[C@H]5C(=O)N(C)CC(=O)N(C)[C@@H](C(C)C)C(=O)O[C@@H]4C)c3nc-2c(C(=O)N[C@@H]2C(=O)N[C@H](C(C)C)C(=O)N3CCC[C@H]3C(=O)N(C)CC(=O)N(C)[C@@H](C(C)C)C(=O)O[C@@H]2C)c(N)c1=O [actinomycin D] (I: T[dV]P[Sar][NMeV] / II: T[dV]P[Sar][NMeV]; ester I:1-I:C, II:1-II:C; linker I:N-II:N via Actinocin(9to1))",O.D. measurement (OD600),declined with increasing concentrations
same,"signal intensity (Quant-Screen Yeast Assay, endogenous alkaline phosphatase, light emission)",declined with increasing concentrations
